In publication PMC8151276, “An Integrated Approach toward NanoBRET Tracers for Analysis of GPCR Ligand Engagement” (Molecules, 2021):
Blank lines part the entries; values can stand above or below the compound they belong to.

Experiments:
Assay type in all cases: binding
CCR7 = target: T1, CCR7 (Homo sapiens, UniProt P32248); experiment: NanoBRET screen HiBiT-CCR7 in HEK293
T1 construct: purchased Promega (in-house HiBiT-GPCR construct library, NanoBRET)
T1 sequence (P32248 25-378): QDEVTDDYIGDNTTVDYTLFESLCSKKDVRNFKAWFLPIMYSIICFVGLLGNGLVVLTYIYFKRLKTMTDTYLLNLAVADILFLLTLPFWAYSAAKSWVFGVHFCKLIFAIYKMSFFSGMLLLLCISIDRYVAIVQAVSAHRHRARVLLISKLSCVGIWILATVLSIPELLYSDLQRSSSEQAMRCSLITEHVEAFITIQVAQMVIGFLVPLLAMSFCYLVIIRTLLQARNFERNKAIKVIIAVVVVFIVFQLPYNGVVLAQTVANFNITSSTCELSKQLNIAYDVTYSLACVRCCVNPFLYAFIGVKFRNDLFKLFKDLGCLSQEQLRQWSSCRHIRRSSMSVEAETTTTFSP
Description: (§1) Each tracer candidate was screened across the entire library of HiBiT-GPCR constructs using NanoBRET as the detection modality. As depicted in Figure 4A, the specificity of interactions was evaluated through decrease in BRET due to competitive displacement of a bound tracer by excess parental compound. Each tracer was analyzed for binding to each HiBiT-GPCR fusion in the absence and in the presence of competing parental compound. Briefly, HEK293 cells were transfected with HiBiT-GPCR constructs diluted into promoterless DNA to reduce expression and maximize translocation to the cell surface. Each tracer candidate was then screened at concentrations of 1 μM and 0.1 μM across cells expressing these fusions. Cells were treated for 1.5 h with tracer either alone or in the presence of 20 μM competing parental compound (i.e., control). BRET was measured upon addition of purified LgBiT and subsequent complementation with HiBiT genetically fused to a GPCR. The specificity of interactions was assessed through a decrease in BRET signal due to competitive displacement of the bound tracer. To further gauge the robustness of these interactions, the fold response over the control (i.e., BRETtracer/BRETcontrol) was calculated. We chose a 1.5-fold response, which translates to ≥7-fold signal over noise as the minimal threshold required to score an interaction as positive. […]. Below we highlight the screening results obtained for our exemplary fluorescent tracers based on Clozapine, Amitriptyline and AZD1283.
(§2) HiBiT-GPCR DNA constructs were diluted in 10 mM Tris pH 8 to a final concentration of 0.01 μg/μL, arrayed in 96-well plates and stored at −20 °C. For transfection, HEK293 cells were suspended in Opti-MEM (without phenol red) supplemented with 2% fetal bovine serum (Seradigm) and 100 units/mL penicillin–streptomycin (Gibco) at a final concentration of 220,000 cells/mL and dispensed into white 96-well plates at 90 μL/well. Subsequent transfections and screens were carried using an Agilent Bravo Automated Liquid Handling Platform. First, the 96-well HiBiT DNA arrays were diluted 25-fold in Opti-MEM (without serum or phenol red) to a final concentration of 0.0004 μg/μL and 20 μL of the diluted DNAs were transferred into new 96-well plates. Next, promoterless carrier DNA (1 μg/μL) was diluted 25-fold (0.04 μg/μL) and then dispensed into the diluted arrays at 20 μL/well. Following brief mixing, Viafect transfection reagent (Promega) diluted 16-fold into Opti-MEM was dispensed into the plates at 40 μL/well. After mixing by pipetting, plates were incubated for 10 min on the pipetting station deck. The DNA-transfection reagent complexes were then added to plates containing cells. To facilitate the screen, 10 μL of DNA-transfection reagent complexes were added in duplicates to the top 4 and bottom 4 rows, resulting in two identical 48-well arrays per plate. Plates with transfected cells were incubated for 18–20 h at 37 °C/5% CO2. A screen of each tracer across the entire library using two different concentrations requires duplicate plates of transfected cells. Depending on the number of tracers being screened, transfections can be scaled up using the same ratios. The next day, for each tracer, four 20× screening solutions in tracer dilution buffer (Promega) were prepared: two duplicates at final concentration of 20 μM and two duplicates at a final concentration of 2 μM. A competing unmodified compound was added to one of each duplicate at a final concentration of 400 μM. The four resulting solutions were diluted 4-fold in Opti-MEM without serum or phenol red to generate 5× solutions (5 µM and 0.5 µM tracer +/− 100 μM competing compound). To screen the library, a BioTek MultiFlo FX liquid dispenser was used to dispense 22.5 µL of tracer solution to the top 4 rows and 22.5 µL tracer + competing compound solution to the 4 bottom rows. Plates were briefly mixed on an orbital shaker and incubated for 1.5 h at room temperature. […]

OPRL1 = target: T2, OPRL1 (Homo sapiens, UniProt P41146); experiment: NanoBRET screen HiBiT-OPRL1 in HEK293
T2 construct: purchased Promega (in-house HiBiT-GPCR construct library, NanoBRET)
T2 sequence (P41146 whole entry): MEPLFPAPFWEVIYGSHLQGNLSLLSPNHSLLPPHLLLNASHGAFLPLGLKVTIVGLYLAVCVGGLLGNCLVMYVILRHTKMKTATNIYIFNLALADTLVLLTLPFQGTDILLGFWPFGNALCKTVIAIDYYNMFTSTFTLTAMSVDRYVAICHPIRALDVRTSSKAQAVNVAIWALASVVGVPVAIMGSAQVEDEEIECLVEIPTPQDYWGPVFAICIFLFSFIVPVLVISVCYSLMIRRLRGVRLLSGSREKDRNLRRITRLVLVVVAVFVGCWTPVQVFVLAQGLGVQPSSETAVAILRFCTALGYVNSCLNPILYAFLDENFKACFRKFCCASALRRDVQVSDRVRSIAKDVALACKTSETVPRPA
Description: as §1, §2

HTR1B = target: T3, HTR1B (Homo sapiens, UniProt P28222); experiment: NanoBRET screen HiBiT-HTR1B in HEK293
T3 construct: purchased Promega (in-house HiBiT-GPCR construct library, NanoBRET)
T3 sequence (P28222 whole entry): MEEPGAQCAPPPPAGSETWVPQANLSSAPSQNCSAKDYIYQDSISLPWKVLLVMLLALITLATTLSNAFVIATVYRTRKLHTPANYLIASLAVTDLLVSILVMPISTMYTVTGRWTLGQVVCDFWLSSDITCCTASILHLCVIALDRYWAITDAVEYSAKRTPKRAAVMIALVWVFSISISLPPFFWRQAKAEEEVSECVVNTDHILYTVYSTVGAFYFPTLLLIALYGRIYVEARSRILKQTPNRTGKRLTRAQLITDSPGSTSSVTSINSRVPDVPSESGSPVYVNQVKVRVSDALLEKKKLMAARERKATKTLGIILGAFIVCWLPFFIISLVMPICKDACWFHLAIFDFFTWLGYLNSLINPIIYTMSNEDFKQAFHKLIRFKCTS
Description: as §1, §2

NPBWR1 = target: T4, NPBWR1 (Homo sapiens, UniProt P48145); experiment: NanoBRET screen HiBiT-NPBWR1 in HEK293
T4 construct: purchased Promega (in-house HiBiT-GPCR construct library, NanoBRET)
T4 sequence (P48145 1-328): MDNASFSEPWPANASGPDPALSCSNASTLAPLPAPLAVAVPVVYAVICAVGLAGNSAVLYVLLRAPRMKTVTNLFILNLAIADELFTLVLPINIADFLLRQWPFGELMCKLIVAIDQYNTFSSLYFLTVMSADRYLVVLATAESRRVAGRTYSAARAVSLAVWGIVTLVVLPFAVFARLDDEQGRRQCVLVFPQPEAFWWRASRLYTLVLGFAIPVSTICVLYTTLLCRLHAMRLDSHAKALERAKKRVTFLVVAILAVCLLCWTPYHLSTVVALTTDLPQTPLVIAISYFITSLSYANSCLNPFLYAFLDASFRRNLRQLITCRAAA
Description: as §1, §2

RXFP3 = target: T5, RXFP3 (Homo sapiens, UniProt Q9NSD7); experiment: NanoBRET screen HiBiT-RXFP3 in HEK293
T5 construct: purchased Promega (in-house HiBiT-GPCR construct library, NanoBRET)
T5 sequence (Q9NSD7 1-469): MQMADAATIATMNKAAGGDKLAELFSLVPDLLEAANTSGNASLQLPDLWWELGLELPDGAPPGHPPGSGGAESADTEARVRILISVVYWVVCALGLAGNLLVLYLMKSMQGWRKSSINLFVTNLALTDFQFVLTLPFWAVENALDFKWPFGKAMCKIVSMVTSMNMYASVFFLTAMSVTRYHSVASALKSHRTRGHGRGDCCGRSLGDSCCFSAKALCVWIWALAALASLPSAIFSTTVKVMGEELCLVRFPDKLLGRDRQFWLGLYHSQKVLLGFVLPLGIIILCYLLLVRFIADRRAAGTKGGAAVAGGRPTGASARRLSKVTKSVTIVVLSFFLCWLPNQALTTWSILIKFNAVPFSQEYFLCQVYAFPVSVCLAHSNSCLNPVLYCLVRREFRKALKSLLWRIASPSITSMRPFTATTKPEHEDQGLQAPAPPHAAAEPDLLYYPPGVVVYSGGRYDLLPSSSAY
Description: as §1, §2

NanoBRET Fold Response (CCR7; 0.1μM tracer): 0.88
NanoBRET Fold Response (CCR7; 1μM tracer): 0.96
NanoBRET Fold Response (OPRL1; 0.1μM tracer): 1.14
NanoBRET Fold Response (OPRL1; 1μM tracer): 1.14
NanoBRET Fold Response (HTR1B; 0.1μM tracer): 0.74
NanoBRET Fold Response (HTR1B; 1μM tracer): 0.74
NanoBRET Fold Response (NPBWR1; 0.1μM tracer): 0.88
NanoBRET Fold Response (NPBWR1; 1μM tracer): 0.84
NanoBRET Fold Response (RXFP3; 0.1μM tracer): 1.07
NanoBRET Fold Response (RXFP3; 1μM tracer): 1.11
SMILES: COc1ccc2c(n1)c(CCNC(C)=O)cn2CCNC(=O)CCc1ccc2n1[B-](F)(F)[N+]1=C(c3ccc[nH]3)C=CC1=C2 [Azamelatonin-1-NB590]

SMILES: CC(C)N(CC[C@H](c1ccccc1)c1cc(CCNC(=O)c2ccc(CNC(=O)CCc3ccc4n3[B-](F)(F)[N+]3=C(c5ccc[nH]5)C=CC3=C4)cc2)ccc1O)C(C)C [Tolterodine-BZ-NB590]
NanoBRET Fold Response (CCR7; CCR7, tracer 0.1μM): 1.00
NanoBRET Fold Response (CCR7; CCR7, tracer 1μM): 1.01
NanoBRET Fold Response (OPRL1; OPRL1, tracer 0.1μM): 0.92
NanoBRET Fold Response (OPRL1; OPRL1, tracer 1μM): 0.88
NanoBRET Fold Response (HTR1B; HTR1B, tracer 0.1μM): 1.12
NanoBRET Fold Response (HTR1B; HTR1B, tracer 1μM): 1.33
NanoBRET Fold Response (NPBWR1; NPBWR1, tracer 0.1μM): 1.00
NanoBRET Fold Response (NPBWR1; NPBWR1, tracer 1μM): 1.01
NanoBRET Fold Response (RXFP3; RXFP3, tracer 0.1μM): 1.01
NanoBRET Fold Response (RXFP3; RXFP3, tracer 1μM): 1.19

SMILES: CN1CCN(C2=Nc3cc(Cl)ccc3Nc3ccc(CNC(=O)CCOCCOCCOCCOCCNC(=O)CCc4ccc5n4[B-](F)(F)[N+]4=C(c6ccc[nH]6)C=CC4=C5)cc32)CC1 [Clozapine-b-2-NB590]
NanoBRET Fold Response (CCR7; CCR7, 0.1μM tracer): 1.00
NanoBRET Fold Response (OPRL1; OPRL1, 0.1μM tracer): 1.00
NanoBRET Fold Response (OPRL1; OPRL1, 1μM tracer): 1.01
NanoBRET Fold Response (HTR1B; HTR1B, 0.1μM tracer): 2.07
NanoBRET Fold Response (HTR1B; HTR1B, 1μM tracer): 2.97
NanoBRET Fold Response (NPBWR1; NPBWR1, 0.1μM tracer): 1.05
NanoBRET Fold Response (NPBWR1; NPBWR1, 1μM tracer): 1.07
NanoBRET Fold Response (RXFP3; RXFP3, 0.1μM tracer): 0.99
NanoBRET Fold Response (RXFP3; RXFP3, 1μM tracer): 1.04
